d = 2'-deoxy (DNA); m = 2'-O-methyl

Common to all, as to assay type: cell-based, human
The subject of data set [1] is T24 bladder carcinoma cells. Description: T24 cell viability and chemosensitization (WST-1 tetrazolium dye assay). Particulars: adriamycin 0.5 μg/ml for 20 hours after transfection, vs oligonucleotide alone. The method, then:
T24 cells were transfected with XIAP antisense oligonucleotides, scrambled oligonucleotides, no oligonucleotides (mock transfected), or were left untreated. The cells were tested for viability 20 hours after transfection (with the exception of the untreated control) using the WST-1 tetrazolium dye assay in which WST-1 tetrazolium dye is reduced to a colored formazan product in metabolically active cells (FIG. 5A).
To examine the effects of the nucleobase oligomers on the chemosensitization of the T24 cells to cisplatin or adriamycin, oligonucleotides were tested for their ability to further kill T24 cells in the presence of a fixed dose of adriamycin (0.5 μg/ml). Cells were first transfected with a oligonucleotide, then adriamycin was added for another 20 hours. Viability was measured by WST-1 at the end of the 20-hour drug treatment (FIG. 5B). Results are shown in FIG. 5C as percentage viability compared to nucleobase oligomer treatment alone.
For orientation: Tetrazolium assays rely on reduction of a dye to a coloured formazan, in cell work by metabolically active cells.

A further data set relates to XIAP RNA. Nature of the data set: XIAP RNA knock-down in T24 cells (TaqMan quantitative PCR). An excerpt:
(§1) We used TaqMan quantitative PCR (described below) to assay for changes in mRNA levels after oligonucleotide treatment. We employed ELISA for determining XIAP protein levels and western blotting for determining HIAP1 protein levels. Transfection conditions were optimized with Lipofectamine plus or Lipofectamine 2000 (Life Technologies, Canada) on T24 bladder carcinoma cells or H460 non-small cell lung carcinoma cells, or lipofectin on SF-295 glioblastoma cells, using a fluorescein-tagged sense oligonucleotide (5′-mGmAGAAGATGACTGGTAAmCmA-3′; SEQ ID NO: 261) from XIAP spanning the start codon as a control. The results were visualized and gauged by epi-fluorescence microscopy. In the case of T24 cells, transfections were further optimized based on the ability of a published oligonucleotide to downregulate survivin expression (Li et al., Nat. Cell Biol. 1:461-466, 1999) (5′-U/TGTGCTATTCTGTGAAU/TU/T-3′ SEQ ID NO: 262). We optimized the transfection conditions based on the TaqMan results of survivin RNA knock-down detected with PCR primers and fluorescent probe, described in detail below. […] We then applied these conditions to screen for XIAP protein knock-down using the oligo library against T24 cells.
RNA was extracted from cells lysed in RLT buffer (QIAGEN, Valencia, Calif.), and purified using QIAGEN RNeasy columns/kits. Real-time quantitative PCR was performed on a Perkin-Elmer ABI 7700 Prism PCR machine. RNA was reverse transcribed and amplified according to the TaqMan Universal PCR Master Mix protocol of PE Biosystems, using primers and probes designed to specifically recognize XIAP, HIAP1, survivin, or GAPDH. For human survivin, the forward primer was 5′-[…]-3′ (SEQ ID NO: 263), the reverse primer was 5′-GAAAGGAAAGCGCAACCG-3′ (SEQ ID NO: 264), and the probe was 5′-(FAM)[…](TAMRA)-3′ (SEQ ID NO: 265). For human HIAP1, the forward primer was 5′-[…]-3′ (SEQ ID NO: 266), the reverse primer was 5′-[…]-3′ (SEQ ID NO: 267), and the probe was 5′-(FAM)[…](TAMRA)-3′ (SEQ ID NO: 268). For human XIAP, the forward primer was 5′-[…]-3′ (SEQ ID NO: 269), the reverse primer was 5′-[…]-3′ (SEQ ID NO: 270), and the probe was 5′-(FAM)[…](TAMRA)-3′ (SEQ ID NO: 271). For human GAPDH, the forward primer was 5′-GAAGGTGAAGGTCGGAGTC-3′ (SEQ ID NO: 272), the reverse primer was 5′-GAAGATGGTGATGGGATTC-3′ (SEQ ID NO: 273), and the probe was 5′-(JOE)[…](TAMRA)-3′ (SEQ ID NO: 274). FAM is 6-carboxyfluoroscein, JOE is 6-carboxy-4,5-dichloro-2,7-dimethoxyfluoroscein, and TAMRA is 6-carboxy-N,N,N′,N′-tetramethylrhodamine. FAM and JOE are 5′ reporter dyes, while TAMRA is a 3′ quencher dye.
Relative quantification of gene expression was performed as described in the PE Biosystems manual using GAPDH as an internal standard. The comparative Ct (cycle threshold) method was used for relative quantitation of IAP mRNA levels compared to GAPDH mRNA levels. Briefly, real-time fluorescence measurements were taken at each PCR cycle and the threshold cycle (Ct) value for each sample was calculated by determining the point at which fluorescence exceeded a threshold limit of 30 times the baseline standard deviation. The average baseline value and the baseline SD are calculated starting from the third cycle baseline value and stopping at the baseline value three cycles before the signal starts to exponentially rise. The PCR primers and/or probes for the specific IAPs were designed to span at least one exon-intron boundary separated by 1 kb or more of genomic DNA, to reduce the possibility of amplifying and detecting genomic DNA contamination. The specificity of the signal, and possible contamination from DNA, were verified by treating some RNA samples with either DNase or RNase, prior to performing the reverse transcription and PCR reaction steps.
The XIAP synthetic library of 96 antisense oligonucleotides was first screened for decreases in XIAP protein levels. […]
(In general: Real-time PCR tracks product formation cycle by cycle.)

The test system of another data set is XIAP protein. Description: XIAP protein knock-down in T24 cells (XIAP ELISA, relative to total protein). The following applies: for XIAP protein levels relative to total protein, compared to mock transfection (in words): first screen of the library.
Excerpt: as §1
A standard colorimetric XIAP ELISA assay was performed using an affinity-purified rabbit polyclonal antibody to XIAP as a capture antibody, and was detected with a XIAP monoclonal antibody (MBL, Japan) and a biotinylated anti-mouse Ig antibody and horseradish peroxidase-conjugated streptavidin and TMB substrate. Alternatively, a polyclonal XIAP or HIAP1 antibody may be used to measure XIAP or HIAP1 protein levels, respectively.
The XIAP synthetic library of 96 antisense oligonucleotides was first screened for decreases in XIAP protein levels. Specifically, T24 cells (1.5×10^4 cells/well) were seeded in wells of a 96-well plate on day 1, and were cultured in antibiotic-free McCoy's medium for 24 hours. On day 2, the cells were transfected with XIAP antisense oligonucleotides as described above (oligonucleotides are labeled according to their plated position, i.e., A1 to H12, and include two repeats, A13 and B13 that contain lyophilized DNA pellets that stuck to the sealing membrane). Briefly, the nucleobase oligomers were diluted in 10 μl/well of serum-free, antibiotic-free McCoy's medium and then PLUS reagent was added. Lipofectamine was diluted in 10 μl/well of serum-free, antibiotic-free McCoy's medium, and both mixes were incubated for 15 minutes at room temperature. The mixes were then combined and incubated for 15 minutes at room temperature.
In the meantime, the complete medium was removed from the cells and 50 μl/well of serum-free, antibiotic-free medium was added to the cells. The transfection mixes were added to the well, and the cells were incubated for three hours. Then 30 μl/well of serum-free, antibiotic-free medium and 100 μl/well of antibiotic-free complete medium, containing 20% fetal bovine serum were added to each well.
At day 3, XIAP RNA levels were measured using quantitative real-time PCR techniques, as described above. At day 4, XIAP protein levels were measured by ELISA (FIGS. 1A, 1C, 1E, 1G, 1I, and 1K), and total cellular protein was measured biochemically (FIGS. 1B, 1D, 1F, 1H, 1J, and 1L; used to normalize the XIAP protein levels). The results were compared to a mock transfection sample (treated with the transfection agent but no oligonucleotide DNA was added, and then processed as for the other samples). Time course experiments determined that the optimal time for protein knock-down to be around 12 to 24 hours. […]
In general terms: In an ELISA, binding on a coated surface is turned into a signal by an enzyme label.

Data set [2] deals with XIAP mRNA. Nature of the data set: XIAP mRNA knock-down in H460 cells (real-time RT-PCR / TaqMan). The procedure, abridged: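 NCI-H460 cells transfected with phosphorothioate antisense oligonucleotides via Lipofectamine 2000; RNA isolated after 6 h treatment. XIAP mRNA quantified by one-step TaqMan real-time RT-PCR, comparative Ct (threshold 30× baseline SD), normalized to GAPDH and expressed relative to untreated control cells.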

In data set [3] the test system is XIAP mRNA. The description is as above. Particulars: 2 × 2 MBO; NCI-H460 cells, 9 hours post-transfection; relative level (mock control 1.01).
The test system of data set [4] is T24 bladder carcinoma cells. Description: Total cellular protein in transfected T24 cells. The following applies: first screen. As for the experimental part:
At day 3, XIAP RNA levels were measured using quantitative real-time PCR techniques, as described above. At day 4, XIAP protein levels were measured by ELISA (FIGS. 1A, 1C, 1E, 1G, 1I, and 1K), and total cellular protein was measured biochemically (FIGS. 1B, 1D, 1F, 1H, 1J, and 1L; used to normalize the XIAP protein levels). The results were compared to a mock transfection sample (treated with the transfection agent but no oligonucleotide DNA was added, and then processed as for the other samples). Time course experiments determined that the optimal time for protein knock-down to be around 12 to 24 hours.
These nucleobase oligomers were also examined for their ability to decrease XIAP mRNA levels at 12 hours, normalized against GAPDH levels, and compared to mock transfection. Total protein concentrations at 12 hours were also determined (FIG. 2C).

In the case of “ATCTTCTCTTGAAAATAGG (sugars from the 5' end m2 d15 m2, linkages s1 o16 s1 (s phosphorothioate, o phosphodiester), T or U not given here) [Code F3]”, the “further drop in survival with adriamycin” value in data set [1] stood at 40%. For the same sequence, the “XIAP down-regulation T24 RNA” value in the data set on XIAP RNA turned out to be 44%. In the data set with XIAP protein, the “XIAP down-regulation T24 protein” value turned out to be 53% and the “XIAP protein levels relative to total protein, compared to mock transfection (in words)” value is “some decrease”.

Consider “GATTCACTTCGAATATTAA (sugars from the 5' end m2 d15 m2, linkages s1 o16 s1 (s phosphorothioate, o phosphodiester), methylation of C not given here) [Code D7]”, for which the “further drop in survival with adriamycin” value in data set [1] came out at 40%. In addition, the “XIAP down-regulation H460 RNA” value with XIAP mRNA [2] is 46%. For the same sequence, in the data set on XIAP RNA, the “XIAP down-regulation T24 RNA” value is 56%. Besides, in the data set on XIAP protein, the “XIAP down-regulation T24 protein” value is recorded as 88% and the “XIAP protein levels relative to total protein, compared to mock transfection (in words)” value is given as “some decrease”.

For the sequence “AGTTAAATGAATATTGTTT (antisense; sugars from the 5' end m2 d15 m2, backbone and T or U not given here; further chemistry not fully specified) [Code B9]”, the “XIAP RNA” value in the data set with XIAP mRNA [3] amounted to 0.74. Moreover, the “total protein (toxic or cytostatic effect)” value in data set [4] is on record as “clear drop”. Besides, the “XIAP down-regulation H460 RNA” value in the data set with XIAP mRNA [2] came out at 38%. Besides, in the data set on XIAP protein, the “XIAP protein levels relative to total protein, compared to mock transfection (in words)” value was “no relative drop”.

Consider “GACACTCCTCAAGTGAATG (antisense; sugars from the 5' end m2 d15 m2, backbone, methylation of C and T or U not given here; further chemistry not fully specified) [Code C9]”, for which, in data set [4], the “total protein (toxic or cytostatic effect)” value is recorded as “clear drop”. Besides, in the data set with XIAP protein, the “XIAP protein levels relative to total protein, compared to mock transfection (in words)” value is “no relative drop”.

(Values after patent US8012944B2, “Method for treating cancer using IAP antisense oligomer and chemotherapeutic agent” (Pharmascience Inc., priority 2003, dated 2011).)
